Reference: US20230058634A1, “PREVENTION OF PLATELET ACTIVATION AND CELL DIFFERENTIATION DURING THE PROCESSING OF BLOOD AND BLOOD-RELATED COMPOSITIONS” (GPB Scientific, Inc., priority 2020, published 2023)

Tests used:
[1] = test system: CD45+ cells; experiment: Cell viability in apheresis product by flow cytometry (CD45-PerCP and 7-AAD; % CD45+ cells); assay type: cell-based; conditions: FIG. 7 lower panel; 14 mM Citrate, overnight; A23187 at 4 micromolar in DMEM media
Protocol: Cell viability may be determined by flow cytometry using CD45-PerCP and 7-AAD.
FIG. 7: An apheresis product is collected into 14 mM Citrate (ACD-A). […] The calcium ionophore A23187 is used at 4 micromolar in apheresis material resuspended in DMEM media. […] Determination of singlets and aggregates may be done by flow cytometry using side and forward scatter of the CD45+ cell population. Cell viability is determined as the % CD45+ cells.

[2] = test system: neutrophils; conditions: cited from earlier work
[3] = test system: cultured cells; conditions: at micromolar concentrations; cited from earlier work
[4] = test system: CD45+ cell population; experiment: Singlets and aggregates in apheresis product by flow cytometry (side and forward scatter); assay type: cell-based; conditions: FIG. 7 top panel; 14 mM Citrate (ACD-A), overnight, low/medium/high concentrations, compared to control with no inhibitors
[5] = test system: cell aggregates; experiment: Cell aggregates in apheresis product after 24 h, glass slide under microscope; assay type: cell-based; conditions: FIG. 10, 14 mM Citrate, GSK484 10 micromolar, DTPA 10 micromolar, Tirofiban 2.5 micrograms/ml
Protocol: FIG. 9: An apheresis product is collected in 14 mM Citrate and divided into two different tubes—one with no further addition and a second tube with additional citrate for a final concentration of 28 mM (2X ACD-A). The tubes are left overnight at room temperature under rotation. After 24 h, aliquots of the tubes are spotted on a glass slide and are analyzed under the microscope for the presence of cell aggregates.
FIG. 10: An apheresis product is collected in 14 mM Citrate (ACD-A) and aliquots are taken and incubated with the different inhibitors, or in combination, in different tubes for 24 h. The tubes are left under rotation at room temperature. After 24 h, aliquots of the different tubes are spotted on a glass slide and are analyzed under a microscope for the presence of cell aggregates.

[6] = test system: granulocytes; conditions: incubation; cited from earlier work

In the case of `CNc1ccc2oc(C[C@H]3O[C@@]4(CC[C@H]3C)O[C@H]([C@H](C)C(=O)c3ccc[nH]3)[C@H](C)C[C@H]4C)nc2c1C(=O)O` [A23187], the “viability (% CD45+ cells)” value [1] is reported as “affect viability”.
In the case of `CCCCC(CC)CNC(=N)NC(=N)NCCCCCCNC(=N)NC(=N)NCC(CC)CCCC` (stereo not drawn) [Alexidine], the “NETosis after 2 h of incubation” value ([2]; after 2 h of incubation) is listed as “induces NETosis”, the “NET formation induced by ionomycin” value ([2]; in neutrophils) is listed as “inhibits NET formation” and the “basal level of netosis” value ([2]; without an increase of cytosolic calcium) is listed as “inhibits the basal level of netosis”.
In the case of `O=C(O)CN(CCN(CC(=O)O)CC(=O)O)CCN(CC(=O)O)CC(=O)O` [DTPA, diethylenetriaminepentacetic acid], the “apoptosis and cell death” value [3] is listed as “induce apoptosis and cell death” and the “aggregation (singlets %)” value [4] is listed as “very effective at all concentrations tested”.
For `COc1cc(C(=O)N2CC[C@@H](O)[C@@H](N)C2)cc2nc(-c3cc4ccccc4n3CC3CC3)n(C)c12` [GSK484], the “aggregation (singlets %)” value [4] was “inhibit aggregation in a dose dependent manner”.
With `S=C=Nc1cccc(NC(=S)NCCCCNC(=S)Nc2cccc(N=C=S)c2)c1` [MRS2578] the “aggregation (singlets %)” value [4] was “inhibit aggregation in a dose dependent manner”.
For `c1ccc(CN(CCN(Cc2ccccn2)Cc2ccccn2)Cc2ccccn2)nc1` [TPEN, N,N,N′, N′-tetrakis(2-pyridylmethyl)ethylenediamine], the “apoptosis and cell death” value [3] is given as “induce apoptosis and cell death”.
With `CCCCS(=O)(=O)N[C@@H](Cc1ccc(OCCCCC2CCNCC2)cc1)C(=O)O` [Tirofiban, tirofiban] the “formation of cell aggregates” value [5] was “prevents the formation of cell aggregates”.
For `C[C@@H](N)[C@H]1CC[C@H](C(=O)Nc2ccncc2)CC1` [Y-27632], the “NET formation induced by PMA and other challenges” value ([2]; pre-treatment) is listed as “inhibits NET formation” and the chemotaxis of granulocytes [6] is listed as “blocked the chemotaxis”.
